{
  "source": "paper PMC9926234",
  "about": "“Iterative computational design and crystallographic screening identifies potent inhibitors targeting the Nsp3 macrodomain of SARS-CoV-2” (Proceedings of the National Academy of Sciences of the …, 2023)",
  "key": {"SARS-CoV-2 NSP3 Mac1 [1]": {"biological_target": "T1, SARS-CoV-2 NSP3 Mac1 (Severe acute respiratory syndrome coronavirus 2, UniProt P0DTD1)", "parameters": "method as in PMID 33853786", "conditions": "cited from earlier work"}, "[2]": {"tested_on": "P-glycoprotein (human MDR1)", "experiment": "MDR1-MDCK II cell permeability", "conditions": "dog, MDCK-MDR1, pH 7.4"}, "SARS-CoV-2 NSP3 Mac1 [3]": {"biological_target": "T1, SARS-CoV-2 NSP3 Mac1", "parameters": "contains a conserved macrodomain enzyme (Mac1); Differential scanning fluorimetry of Mac1, maximum thermal upshift", "conditions": "maximum shift over tested concentrations; binder"}, "SARS-CoV-2 NSP3 Mac1 [4]": {"biological_target": "T1, SARS-CoV-2 NSP3 Mac1", "experiment": "biochemical", "parameters": "HTRF ADPr-peptide displacement assay with Mac1, dose-response IC50", "conditions": "read-out: IC50 [µM] / 0.5, 1.2, 1.4"}, "TARG1": {"biological_target": "T2, TARG1 (Homo sapiens, UniProt Q9Y530)", "T2 construct": "Targ1_HTRF; HTRF assay; pET22b(+); His6, TEV; 1-153; made in house", "T2 sequence (Q9Y530 with tags, fused parts or gaps)": "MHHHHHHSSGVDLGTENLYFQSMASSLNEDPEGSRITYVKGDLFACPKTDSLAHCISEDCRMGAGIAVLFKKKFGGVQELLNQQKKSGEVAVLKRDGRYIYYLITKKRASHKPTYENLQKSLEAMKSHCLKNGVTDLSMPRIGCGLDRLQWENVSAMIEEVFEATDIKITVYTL", "experiment": "adapted HTRF-based peptide displacement assay (off-target)", "assay_type": "binding"}, "MDR1-MDCKII cells": {"tested_on": "MDR1-MDCKII cells", "experiment": "MDR1-MDCK II cell permeability", "conditions": "MDR1-MDCKII cells"}, "SARS-CoV-2 NSP3 Mac1 [5]": {"biological_target": "T1, SARS-CoV-2 NSP3 Mac1", "assay_type": "binding", "parameters": "contains a conserved macrodomain enzyme (Mac1)", "procedure,_shortened": "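Differential scanning fluorimetry using 5 µM Fluorescent Yellow dye in place of SYPRO Orange. Compounds run in triplicate at seven two-fold dilutions from 1,000 or 100 μM, with ΔTma taken against a DMSO control in the same plate region. Dose-response significance assessed by Spearman's coefficient between concentration and ΔTma.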"}, "MacroD2": {"biological_target": "T3, MacroD2 (Homo sapiens, UniProt A1Z1Q3)", "T3 construct": "MacroD2_HTRF; HTRF assay; pET22b(+); His6, TEV, Avi; made in house", "T3 sequence (A1Z1Q3 with tags, fused parts or gaps)": "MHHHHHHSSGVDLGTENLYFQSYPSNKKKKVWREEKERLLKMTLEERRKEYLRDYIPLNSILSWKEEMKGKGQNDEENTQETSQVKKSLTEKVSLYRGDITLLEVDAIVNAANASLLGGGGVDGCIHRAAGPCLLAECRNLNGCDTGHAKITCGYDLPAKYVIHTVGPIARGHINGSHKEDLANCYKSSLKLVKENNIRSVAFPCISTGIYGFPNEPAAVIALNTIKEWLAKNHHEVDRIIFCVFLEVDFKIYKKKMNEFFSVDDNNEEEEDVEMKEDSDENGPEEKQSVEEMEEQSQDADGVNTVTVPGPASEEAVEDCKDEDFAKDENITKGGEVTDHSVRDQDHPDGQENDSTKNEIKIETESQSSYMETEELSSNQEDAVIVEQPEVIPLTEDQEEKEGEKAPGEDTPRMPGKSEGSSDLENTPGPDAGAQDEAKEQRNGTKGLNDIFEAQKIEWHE", "experiment": "adapted HTRF-based peptide displacement assay (off-target)", "assay_type": "binding", "conditions": "compound at 1 mM"}, "SARS-CoV-2 NSP3 Mac1 [6]": {"biological_target": "T1, SARS-CoV-2 NSP3 Mac1", "experiment": "biochemical", "assay_type": "binding", "conditions": "for IC50: read-out: IC50"}, "SARS-CoV-2 NSP3 Mac1 [7]": {"biological_target": "T1, SARS-CoV-2 NSP3 Mac1", "assay_type": "binding"}, "SARS-CoV-2 NSP3 Mac1 [8]": {"biological_target": "T1, SARS-CoV-2 NSP3 Mac1", "parameters": "contains a conserved macrodomain enzyme (Mac1); differential scanning fluorimetry, maximum thermal upshift", "conditions": "binder"}},
  "note": "Values joined by “and” are separate entries in the source; they are usually repeats but may differ in a detail not shown here. Equal entries are not always repeated. Where two headings read alike, the source gives them in different places.",
  "data": [
    {"smiles": "Nc1ccc(C(=O)O)cc1", "note": "[ZINC920, 4-aminobenzoic acid]", "values": [
      {"measurement": "binding to Mac1 in the fragment screen, result in words", "setting": "SARS-CoV-2 NSP3 Mac1 [1]", "result": "did not bind"}
    ]},
    {"smiles": "CC(C(=O)O)c1cccc(C(=O)c2ccccc2)c1", "note": "(stereo not drawn) [Ketoprofen]", "values": [
      {"measurement": "Papp A→B at 90 min, 10 µM", "setting": "[2]", "result": "17.6 ± 2.5", "unit": "×10⁻⁶ cm/s"},
      {"measurement": "Papp B→A at 90 min, 10 µM", "setting": "[2]", "result": "16.1 ± 0.5", "unit": "×10⁻⁶ cm/s"}
    ]},
    {"smiles": "O=C(NC1c2cccc(O)c2CC1C(=O)O)c1ccc(NCC2CC2)nc1", "note": "(stereo not drawn) [Z8539_0009, 8539_0009]", "values": [
      {"measurement": "DSF max dTma", "setting": "SARS-CoV-2 NSP3 Mac1 [3]", "result": 2.03, "unit": "°C"},
      {"measurement": "IC50", "setting": "SARS-CoV-2 NSP3 Mac1 [4]", "result": 17.1, "unit": "µM"}
    ]},
    {"smiles": "O=C(O)C1(F)CN(c2ncnc3[nH]c4cc(F)ccc4c23)CC12CCC2", "note": "(stereo not drawn) [LL1_0023]", "values": [
      {"measurement": "displacement of the ADPr-conjugated peptide (off-target activity)", "setting": "TARG1; compound at 50 µM", "result": "active"},
      {"measurement": "displacement of the ADPr-conjugated peptide (off-target activity)", "setting": "TARG1; compound at 1 mM", "result": 50, "unit": "%"},
      {"measurement": "permeability relative to the Z8539 scaffold", "setting": "MDR1-MDCKII cells", "result": 3, "unit": "fold"},
      {"measurement": "Spearman est (compound concentration vs apparent Tm)", "setting": "SARS-CoV-2 NSP3 Mac1 [5]; DSF dose responsiveness, 1 µM nsp3 mac1, adj p given", "result": 0.98},
      {"measurement": "DSF max dTma", "setting": "SARS-CoV-2 NSP3 Mac1 [5]; maximal thermal upshift", "result": "4.53 ˚C"},
      {"measurement": "displacement of the ADPr-conjugated peptide (off-target activity)", "setting": "MacroD2", "result": 50, "unit": "%"},
      {"measurement": "IC50", "setting": "SARS-CoV-2 NSP3 Mac1 [6]; HTRF ADPr-peptide displacement from SARS-CoV-2 Mac1", "result": "6 to 10 µM and 5.8 to 10.9 µM"},
      {"measurement": "IC50", "setting": "SARS-CoV-2 NSP3 Mac1 [6]; HTRF", "result": "5.8 µM and 10.9 µM"},
      {"measurement": "Ki", "setting": "SARS-CoV-2 NSP3 Mac1 [6]; Ki estimation from HTRF-derived IC50, Cheng-Prusoff, peptide 400nM, Kd 2.68µM, read-out: Ki***", "result": "5 µM and 9.5 µM"},
      {"measurement": "1-BDC", "setting": "SARS-CoV-2 NSP3 Mac1 [7]; PanDDA 1-BDC value of the event, crystal soak, compound concentration 100 mM, per dataset", "result": 0.28},
      {"measurement": "1-BDC (PanDDA)", "setting": "SARS-CoV-2 NSP3 Mac1 [7]; PanDDA event map, 1 minus background density correction, crystal soaking of Mac1", "result": 0.16},
      {"measurement": "PanDDA hit?", "setting": "SARS-CoV-2 NSP3 Mac1 [7]; crystal soak, compound concentration 100 mM, per dataset", "result": "TRUE"},
      {"measurement": "Modeled?", "setting": "SARS-CoV-2 NSP3 Mac1 [7]; ligand modeled from this dataset, compound concentration 100 mM", "result": "TRUE"},
      {"measurement": "Refined occupancy", "setting": "SARS-CoV-2 NSP3 Mac1 [7]; ligand occupancy after refinement (phenix.refine), crystal soaking of Mac1", "result": 32},
      {"measurement": "HIT*", "setting": "SARS-CoV-2 NSP3 Mac1 [7]; true hit = binding in crystallographic soaking or the HTRF-based binding assay", "result": "Y"}
    ]},
    {"smiles": "O=C(NC1c2cccc(O)c2CC1C(=O)O)c1cnc(NC2CCOCC2)cn1", "note": "(stereo not drawn) [Z8539_0007, 8539_0007]", "values": [
      {"measurement": "DSF max dTma", "setting": "SARS-CoV-2 NSP3 Mac1 [3]", "result": 3.42, "unit": "°C"},
      {"measurement": "IC50", "setting": "SARS-CoV-2 NSP3 Mac1 [4]", "result": 6.4, "unit": "µM"}
    ]},
    {"smiles": "O=C(Nc1ccc(C(=O)N[C@H]2c3ccccc3CC[C@H]2C(=O)O)cc1)NC1CC1", "note": "[Z8539_0030, 8539_0030]", "values": [
      {"measurement": "DSF max dTma", "setting": "SARS-CoV-2 NSP3 Mac1 [3]", "result": 4.92, "unit": "°C"},
      {"measurement": "IC50", "setting": "SARS-CoV-2 NSP3 Mac1 [4]", "result": 5.9, "unit": "µM"}
    ]},
    {"smiles": "O=C(NC1c2cccc(O)c2CC1C(=O)O)c1cnc2c(c1)CCCN2", "note": "(stereo not drawn) [Z8539_0006, 8539_0006]", "values": [
      {"measurement": "DSF max dTma", "setting": "SARS-CoV-2 NSP3 Mac1 [8]", "result": 0, "unit": "degC"},
      {"measurement": "IC50", "setting": "SARS-CoV-2 NSP3 Mac1 [4]", "result": 168, "unit": "µM"}
    ]},
    {"smiles": "O=C1COc2cc(C(=O)NC3c4cccc(O)c4CC3C(=O)O)ccc2N1", "note": "(stereo not drawn) [Z8539_0014, 8539_0014]", "values": [
      {"measurement": "DSF max dTma", "setting": "SARS-CoV-2 NSP3 Mac1 [3]", "result": 1.83, "unit": "°C"},
      {"measurement": "IC50", "setting": "SARS-CoV-2 NSP3 Mac1 [4]", "result": 27.9, "unit": "µM"}
    ]},
    {"smiles": "O=C(Nc1ccc(C(=O)NC2c3ccccc3CC2C(=O)O)cc1)NC1CC1", "note": "(stereo not drawn) [Z8539_0029, 8539_0029]", "values": [
      {"measurement": "DSF max dTma", "setting": "SARS-CoV-2 NSP3 Mac1 [3]", "result": 3.66, "unit": "°C"},
      {"measurement": "IC50", "setting": "SARS-CoV-2 NSP3 Mac1 [4]", "result": 4.8, "unit": "µM"}
    ]}
  ]
}
